Source: US20170056336A1, “CO-TARGETING ANDROGEN RECEPTOR SPLICE VARIANTS AND MTOR SIGNALING PATHWAY FOR THE TREATMENT OF CASTRATION-RESISTANT PROSTATE CANCER” (British Columbia Cancer Agency Branch, priority 2015, published 2017)
Each block holds one compound with its values, some of them ahead of it.

What was measured:
[1] = system: mTOR and AR pathways in parental LNCaP cells; experiment: Western blot analysis of mTOR and AR pathways in parental LNCaP cells; format: cell-based, human; conditions: parental LNCaP cells, R1881 1 nM
AR = target: T1, AR (Homo sapiens, UniProt P10275, T878A); experiment: PSA-, ARR3-, PB-luciferase AR reporter assay in LNCaP95 cells; conditions: LNCaP95 cells treated with androgen and BEZ-235 15 nM
T1 sequence (P10275 1-920 T878A): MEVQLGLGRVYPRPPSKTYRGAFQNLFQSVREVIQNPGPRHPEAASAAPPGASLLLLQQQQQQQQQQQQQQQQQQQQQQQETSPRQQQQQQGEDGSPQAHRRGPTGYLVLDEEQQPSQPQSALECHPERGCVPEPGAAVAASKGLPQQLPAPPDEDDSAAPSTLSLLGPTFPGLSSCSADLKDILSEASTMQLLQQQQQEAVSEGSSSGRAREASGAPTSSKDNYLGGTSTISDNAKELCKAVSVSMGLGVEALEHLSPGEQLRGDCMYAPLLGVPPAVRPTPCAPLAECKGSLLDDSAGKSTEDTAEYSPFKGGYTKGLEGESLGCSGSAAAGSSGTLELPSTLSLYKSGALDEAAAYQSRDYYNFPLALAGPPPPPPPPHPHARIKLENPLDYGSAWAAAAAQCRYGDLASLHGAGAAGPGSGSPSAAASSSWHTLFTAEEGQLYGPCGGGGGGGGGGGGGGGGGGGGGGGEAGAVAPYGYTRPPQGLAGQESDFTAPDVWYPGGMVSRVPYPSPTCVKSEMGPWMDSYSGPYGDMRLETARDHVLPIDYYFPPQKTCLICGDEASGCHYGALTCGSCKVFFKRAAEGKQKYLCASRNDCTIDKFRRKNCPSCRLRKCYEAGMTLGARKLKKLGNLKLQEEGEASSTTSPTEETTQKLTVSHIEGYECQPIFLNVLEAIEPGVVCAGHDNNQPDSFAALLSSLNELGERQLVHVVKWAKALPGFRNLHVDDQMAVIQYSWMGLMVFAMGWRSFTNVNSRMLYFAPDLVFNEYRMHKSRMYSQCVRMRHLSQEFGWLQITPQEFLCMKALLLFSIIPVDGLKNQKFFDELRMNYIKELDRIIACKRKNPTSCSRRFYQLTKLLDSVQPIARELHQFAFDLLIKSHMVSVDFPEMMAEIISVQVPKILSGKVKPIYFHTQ

LNCaP95 xenografts [2] = experiment: Western blot analyses of protein lysates from xenografts; format: in vivo, mice
[3] = system: genes regulated by FL-AR and AR-V7 in LNCaP95 cells; experiment: Gene expression analysis (quantitative real-time RT-PCR) in LNCaP95 cells; format: cell-based, human
LNCaP95 cells = experiment: Cell proliferation BrdU immunoassay; format: cell-based, human; conditions: R1881 0.1 nM, 48 h, serum-free, Compound A 25 uM, enzalutamide 10 uM, BEZ-235 15 nM, everolimus 10 nM
LNCaP95 xenografts [4] = experiment: Immunohistochemistry of harvested xenografts; format: in vivo, mice
[5] = system: mTOR and AR pathways in LNCaP95 cells; experiment: Western blot analysis of mTOR and AR pathways in LNCaP95 cells; format: cell-based, human; conditions: for expression of UBE2C / pS6 levels: enzalutamide 10 uM; for pS6 levels: regardless of androgen status; for BEZ-235-increased protein levels of FL-AR, AR-V7 and PSA: elevations caused by BEZ-235 15 nM, LNCaP95 and LNCaP cells
Description: Cells were harvested and whole-cell lysate (10 to 15 ug) was subjected to SDS-PAGE. Antibodies used were: AR (1:1000; Santa Cruz), AR-V7 (1:400; Precision), p110α (1:500; BD Bioscience), p110β (1:1000; abcam), […] (1:1000; abcam), p110δ (1:1000; abcam), UBE2C (Boston Biochem; 1:1000), PTEN (1:1000), pS6 (1:2000), pAktThr308 (1:1000), pAktSer473 (1:2000), p4EBP1 (1:1000), total-Akt (1:1000), total-S6 (1:1000), total-4EBP1 (1:1000), pERK/MAPK (1:1000), total-ERK/MAPK (1:1000) from Cell Signaling technology (Danvers, Mass.). β-actin (1:10,000, Abcam) was used as a loading control.
Protein levels of PSA were undetectable in LNCaP95 cells.

AR NTD = target: T2, AR NTD (Homo sapiens, UniProt P10275); experiment: AR NTD transactivation assay in LNCaP cells; format: cell-based; conditions: IL-6 50 ng/ml, 24 h
T2 sequence (P10275 1-558): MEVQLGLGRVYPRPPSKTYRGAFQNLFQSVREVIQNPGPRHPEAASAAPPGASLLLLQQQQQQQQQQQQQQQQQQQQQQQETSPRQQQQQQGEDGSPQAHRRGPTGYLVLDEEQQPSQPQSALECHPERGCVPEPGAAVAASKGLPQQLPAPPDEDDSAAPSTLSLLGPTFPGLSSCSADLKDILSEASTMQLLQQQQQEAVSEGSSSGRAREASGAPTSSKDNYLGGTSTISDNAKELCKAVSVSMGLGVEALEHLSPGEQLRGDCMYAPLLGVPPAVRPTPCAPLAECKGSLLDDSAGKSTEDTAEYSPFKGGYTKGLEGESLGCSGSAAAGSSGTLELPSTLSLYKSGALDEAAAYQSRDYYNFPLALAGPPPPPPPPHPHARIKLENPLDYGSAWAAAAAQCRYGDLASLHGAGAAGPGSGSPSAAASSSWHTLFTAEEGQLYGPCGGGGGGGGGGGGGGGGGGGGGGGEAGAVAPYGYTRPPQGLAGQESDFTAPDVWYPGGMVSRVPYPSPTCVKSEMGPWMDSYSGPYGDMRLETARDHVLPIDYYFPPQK
Description: Transactivation assays of the AR NTD were performed in LNCaP and LNCaP95 cells cotransfected with p5xGal4UAS-TATA-luciferase and AR NTD-Gal4DBD (FIG. 2D). […] LNCaP95 cells were harvested 24 h after the treatment of indicated compounds.
The AR NTD is essential for full transcriptional activities (Quayle, S. N. et. al., PNAS 2007, 104, 1331-1336). In LNCaP cells, transactivation of the AR NTD can be induced with IL-6 or by stimulation of the PKA pathway with FSK. In LNCaP95 cells, there is high intrinsic activity of the AR NTD which cannot be further induced by stimulation of these pathways.

[6] = harvested tumors, Compound A 100 mg/kg, BEZ-235 5 mg/kg
[7] = absence of androgen, with BEZ-235
[8] = in response to androgen, Compound A 35 uM
[9] = LNCaP95 cells, Compound A 25 uM

- BEZ-235-increased PSA-, ARR3- and PB-luciferase activities (AR): blocked
- AR-NTD transactivation induced by IL-6 (AR NTD): significantly inhibited
Structure (SMILES): CC(C)(c1ccc(OC[C@H](O)CO)cc1)c1ccc(OC[C@H](O)CCl)cc1 [Compound A]
- androgen-induced FKBP5 [1]: poor inhibitor
- androgen-induced levels of PSA [1]: comparable to enzalutamide
- levels of p4EBP1 (LNCaP95 xenografts [2]; harvested tumors, normalized to total 4EBP1): no significant change
- levels of pAkt (LNCaP95 xenografts [2]; harvested tumors, normalized to total Akt): no significant change
- protein levels of UBE2C (LNCaP95 xenografts [2]; [6]): reduced
- protein levels of pS6 (LNCaP95 xenografts [2]; [6]): reduced
- protein levels of FKBP5 (LNCaP95 xenografts [2]; in vivo, monotherapies): reduced
- transcript levels of AR-V7 target genes (UBE2C, CDC20, Akt1) ([3]; absence of androgen): consistently reduced
- BEZ-235-induced increase in transcript levels of AR-V7 [3, 7]: blocked
- BEZ-235-induced levels of PSA transcript [3, 7]: blocked
- expression of FKBP5 [3, 8]: inhibited
- expression of KLK3 [3, 8]: inhibited
- expression of TMPRSS2 [3, 8]: inhibited
- UBE2C levels ([3]; monotherapy, regardless of androgen): attenuated
- proliferation (BrdU incorporation) (LNCaP95 cells): inhibited
- apoptosis (TUNEL staining) (LNCaP95 xenografts [4]): increased
- proliferation (Ki67 staining) (LNCaP95 xenografts [4]): significantly decreased
- UBE2C staining (LNCaP95 xenografts [4]; immunohistochemistry): reduced
- pS6 staining (LNCaP95 xenografts [4]; immunohistochemistry): reduced
- expression of UBE2C [5, 9]: markedly reduced
- pS6 levels [5, 9]: reduced
- levels of FKBP5 ([5]; LNCaP95 cells, presence of androgen (R1881 1 nM), Compound A 25 uM): no effect
- BEZ-235-increased protein levels of FL-AR, AR-V7 and PSA [5]: at least in part attenuated

Structure (SMILES): CNC(=O)c1ccc(N2C(=S)N(c3ccc(C#N)c(C(F)(F)F)c3)C(=O)C2(C)C)cc1F [enzalutamide, 4-(3-(4-cyano-3-(trifluoromethyl)phenyl)-5,5-dimethyl-4-oxo-2-thioxoimidazolidin-1-yl)-2-fluoro-N-methylbenzamide]
- androgen-induced levels of PSA [1]: blocking
- expression of UBE2C [5, 9]: not
- pS6 levels [5, 9]: decreased
- BEZ-235-increased protein levels of FL-AR, AR-V7 and PSA [5]: at least in part attenuated

Structure (SMILES): CO[C@H]1C[C@@H]2CC[C@@H](C)[C@@](O)(O2)C(=O)C(=O)N2CCCC[C@H]2C(=O)O[C@H]([C@H](C)C[C@@H]2CC[C@@H](OCCO)[C@H](OC)C2)CC(=O)[C@H](C)/C=C(\C)[C@@H](O)[C@@H](OC)C(=O)[C@H](C)C[C@H](C)/C=C/C=C/C=C/1C [everolimus]
- proliferation (BrdU incorporation) (LNCaP95 cells): inhibited
- pAkt ([5]; LNCaP95 cells, BEZ-235 15 nM, everolimus): without decreasing
- levels of UBE2C ([5]; LNCaP95 cells, absence of androgen, everolimus): reduced
- protein levels of FL-AR ([5]; LNCaP95 cells, titration experiments): increased
- pS6 ribosomal protein ([5]; LNCaP95 cells, titration, BEZ-235 15 nM, everolimus 10 nM): reduced
